Test results as given in ChEMBL document CHEMBL1909046, “DrugMatrix in vitro pharmacology data”.

Experiments:
[1] = molecular target: T1, Alpha-2C adrenergic receptor (Homo sapiens, UniProt P18825); assay: DRUGMATRIX: Adrenergic Alpha-2C radioligand binding (ligand: [3H] MK-912); type: cell membranes, Sf9, Membrane
T1 sequence (P18825 whole entry): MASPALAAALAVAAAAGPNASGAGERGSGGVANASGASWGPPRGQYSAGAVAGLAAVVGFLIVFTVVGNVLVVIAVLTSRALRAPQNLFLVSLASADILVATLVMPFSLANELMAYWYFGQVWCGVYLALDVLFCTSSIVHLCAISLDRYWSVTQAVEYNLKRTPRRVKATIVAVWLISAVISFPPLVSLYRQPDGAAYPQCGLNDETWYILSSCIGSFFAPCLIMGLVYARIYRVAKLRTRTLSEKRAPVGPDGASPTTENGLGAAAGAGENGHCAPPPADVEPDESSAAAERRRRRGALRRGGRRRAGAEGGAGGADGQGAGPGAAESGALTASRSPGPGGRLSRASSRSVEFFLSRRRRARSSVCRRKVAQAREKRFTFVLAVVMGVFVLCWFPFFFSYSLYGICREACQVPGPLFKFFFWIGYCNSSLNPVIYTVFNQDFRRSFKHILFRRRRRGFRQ

[2] = DRUGMATRIX: Calcium Channel Type L, Benzothiazepine radioligand binding (ligand: [3H] Diltiazem); type: cell membranes, Rattus norvegicus, Wistar, Brain, Membrane; details: Not Active = under 50% inhibition at 10 µM
D(4) dopamine receptor = molecular target: T2, D(4) dopamine receptor (Homo sapiens, UniProt P21917); assay: DRUGMATRIX: Dopamine D4.2 radioligand binding (ligand: [3H] Spiperone); type: cell membranes, CHO-K1, Membrane; details: cho-k1; Not Active = under 50% inhibition at 10 µM
T2 sequence (P21917 whole entry): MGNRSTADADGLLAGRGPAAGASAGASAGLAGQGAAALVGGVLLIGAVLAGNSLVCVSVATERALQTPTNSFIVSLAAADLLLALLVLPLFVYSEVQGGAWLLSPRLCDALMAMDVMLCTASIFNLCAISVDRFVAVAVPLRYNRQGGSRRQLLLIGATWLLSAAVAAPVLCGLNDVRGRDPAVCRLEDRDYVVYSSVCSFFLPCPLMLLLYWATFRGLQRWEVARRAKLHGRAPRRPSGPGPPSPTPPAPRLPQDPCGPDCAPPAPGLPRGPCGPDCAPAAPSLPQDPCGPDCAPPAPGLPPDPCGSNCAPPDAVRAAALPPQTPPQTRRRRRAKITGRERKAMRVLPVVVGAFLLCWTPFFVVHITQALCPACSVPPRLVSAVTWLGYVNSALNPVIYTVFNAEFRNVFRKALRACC

[3] = DRUGMATRIX: Phorbol Ester radioligand binding (ligand: [3H] PDBu); type: cell membranes, Mus musculus, ICR, Brain, Membrane; details: Not Active = under 50% inhibition at 10 µM
[4] = molecular target: T3, Receptor-type tyrosine-protein phosphatase C (Homo sapiens, UniProt P08575); set-up: species or system Escherichia coli;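 note: inhibition of CD45 enzyme activity measured using DiFMUP as substrate; in other assays of this panel Not Active means under 50% inhibition at 10 µM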
T3 sequence (P08575 whole entry): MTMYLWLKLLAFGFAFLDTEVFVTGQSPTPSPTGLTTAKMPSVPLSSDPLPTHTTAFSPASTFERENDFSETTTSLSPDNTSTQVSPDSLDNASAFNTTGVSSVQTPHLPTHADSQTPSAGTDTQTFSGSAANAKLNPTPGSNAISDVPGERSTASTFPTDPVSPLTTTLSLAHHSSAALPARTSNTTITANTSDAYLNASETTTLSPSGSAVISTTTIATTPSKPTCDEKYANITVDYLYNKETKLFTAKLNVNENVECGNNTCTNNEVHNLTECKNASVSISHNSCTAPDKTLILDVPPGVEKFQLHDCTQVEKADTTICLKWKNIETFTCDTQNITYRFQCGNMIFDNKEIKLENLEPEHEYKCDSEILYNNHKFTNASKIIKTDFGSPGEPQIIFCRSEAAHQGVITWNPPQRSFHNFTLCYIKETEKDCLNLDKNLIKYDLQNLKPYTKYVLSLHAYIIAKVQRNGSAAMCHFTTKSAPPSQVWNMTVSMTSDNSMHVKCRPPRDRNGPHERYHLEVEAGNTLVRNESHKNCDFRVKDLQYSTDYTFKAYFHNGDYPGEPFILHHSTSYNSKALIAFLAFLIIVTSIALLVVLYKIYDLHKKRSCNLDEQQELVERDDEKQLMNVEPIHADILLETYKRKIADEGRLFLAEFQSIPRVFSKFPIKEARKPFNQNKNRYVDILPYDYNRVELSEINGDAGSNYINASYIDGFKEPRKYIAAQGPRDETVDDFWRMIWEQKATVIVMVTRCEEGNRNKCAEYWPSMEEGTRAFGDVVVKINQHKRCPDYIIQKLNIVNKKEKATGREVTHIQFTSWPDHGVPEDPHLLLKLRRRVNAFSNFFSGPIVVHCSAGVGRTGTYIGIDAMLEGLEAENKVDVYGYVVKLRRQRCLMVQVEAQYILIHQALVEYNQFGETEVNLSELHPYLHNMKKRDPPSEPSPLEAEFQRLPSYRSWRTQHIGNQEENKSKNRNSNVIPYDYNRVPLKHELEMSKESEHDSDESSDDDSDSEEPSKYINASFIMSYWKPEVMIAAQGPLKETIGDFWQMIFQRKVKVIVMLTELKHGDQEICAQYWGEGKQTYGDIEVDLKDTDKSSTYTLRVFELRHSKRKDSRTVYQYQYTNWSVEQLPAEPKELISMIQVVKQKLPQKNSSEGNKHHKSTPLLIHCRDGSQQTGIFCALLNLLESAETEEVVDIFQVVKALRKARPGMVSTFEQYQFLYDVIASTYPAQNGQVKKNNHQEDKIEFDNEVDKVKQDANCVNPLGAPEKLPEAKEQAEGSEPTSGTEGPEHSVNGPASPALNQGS

SMILES | IC50 ([1]; sf9) | IC50 [2] | Ki [2] | IC50 (D(4) dopamine receptor) | IC50 [3] | Ki [3] | IC50 [4] | IC50 ([2]; read-out: IC50) | Ki ([2]; read-out: Ki) | IC50 ([1]; read-out: IC50) | Ki ([1]; read-out: Ki)
CCOc1nc2cccc(C(=O)O)c2n1Cc1ccc(-c2ccccc2-c2nnn[nH]2)cc1 | Not Active | Not Active | Not Active | Not Active | Not Active | Not Active | Not Active | – | – | – | –
O=C(O)CCCc1cccs1 | Not Active | Not Active | Not Active | Not Active | Not Active | Not Active | Not Active | – | – | – | –
COc1ccccc1N | Not Active | Not Active | Not Active | Not Active | Not Active | Not Active | Not Active | – | – | – | –
O=C(c1ccccc1F)N1CCC(Cc2ccccc2)CC1 | Not Active | Not Active | Not Active | Not Active | Not Active | Not Active | Not Active | – | – | – | –
Cc1c(O)cccc1C(=O)N[C@@H](CSc1ccccc1)[C@H](O)CN1C[C@H]2CCCC[C@H]2C[C@H]1C(=O)NC(C)(C)C | Not Active | – | – | Not Active | Not Active | Not Active | Not Active | 14600 nM | 13000 nM | – | –
CC(O)COC[C@H]1O[C@@H]2O[C@H]3[C@H](O)[C@@H](O)[C@@H](O[C@H]4[C@H](O)[C@@H](O)[C@@H](O[C@H]5[C@H](O)[C@@H](O)[C@@H](O[C@H]6[C@H](O)[C@@H](O)[C@@H](O[C@H]7[C@H](O)[C@@H](O)[C@@H](O[C@H]8[C@H](O)[C@@H](O)[C@@H](O[C@H]1[C@H](O)[C@H]2O)O[C@@H]8COCC(C)O)O[C@@H]7COCC(C)O)O[C@@H]6COCC(C)O)O[C@@H]5COCC(C)O)O[C@@H]4COCC(C)O)O[C@@H]3COCC(C)O (stereo partly drawn) [2-HYDROXYPROPYL-BETA-CYCLODEXTRIN] | Not Active | Not Active | Not Active | Not Active | Not Active | Not Active | Not Active | – | – | – | –
NC(=O)c1cccc(N)c1 [3-AMINOBENZAMIDE] | Not Active | Not Active | Not Active | Not Active | Not Active | Not Active | Not Active | – | – | – | –
C[C@H]1O[C@H](O[C@H]2[C@H](O)[C@@H](O)[C@@H](O[C@H]3[C@H](O)[C@@H](O)C(O)O[C@@H]3CO)O[C@@H]2CO)[C@H](O)[C@@H](O)[C@@H]1N[C@H]1C=C(CO)[C@@H](O)[C@H](O)[C@H]1O (stereo not given in full) [ACARBOSE] | Not Active | Not Active | Not Active | Not Active | Not Active | Not Active | Not Active | – | – | – | –
CC[C@H]1[C@@H]2C[C@H]3[C@@H]4N(C)c5ccccc5[C@]45C[C@@H]([C@@H]2[C@H]5O)N3[C@@H]1O [AJMALINE] | Not Active | Not Active | Not Active | Not Active | Not Active | Not Active | Not Active | – | – | – | –
NC12CC3CC(CC(C3)C1)C2 [AMANTADINE] | Not Active | Not Active | Not Active | Not Active | Not Active | Not Active | Not Active | – | – | – | –
NCCCNCCSP(=O)(O)O [AMIFOSTINE] | Not Active | Not Active | Not Active | Not Active | Not Active | Not Active | Not Active | – | – | – | –
CN(C)CCC=C1c2ccccc2CCc2ccccc21 [AMITRIPTYLINE] | – | – | – | Not Active | Not Active | Not Active | Not Active | 1990 nM | 1770 nM | 59 nM | 8.6 nM
CC(=O)Oc1ccccc1C(=O)O [ASPIRIN] | Not Active | Not Active | Not Active | Not Active | Not Active | Not Active | Not Active | – | – | – | –
CC(C)c1c(C(=O)Nc2ccccc2)c(-c2ccccc2)c(-c2ccc(F)cc2)n1CC[C@@H](O)C[C@@H](O)CC(=O)O [ATORVASTATIN] | Not Active | Not Active | Not Active | Not Active | Not Active | Not Active | Not Active | – | – | – | –
CC(=O)OC[C@H]1O[C@@H](n2ncc(=O)[nH]c2=O)[C@H](OC(C)=O)[C@@H]1OC(C)=O [AZARIBINE] | Not Active | Not Active | Not Active | Not Active | Not Active | Not Active | Not Active | – | – | – | –
C[C@H]1[C@H](NC(=O)/C(=N\OC(C)(C)C(=O)O)c2csc(N)n2)C(=O)N1S(=O)(=O)O [AZTREONAM] | Not Active | Not Active | Not Active | Not Active | Not Active | Not Active | Not Active | – | – | – | –
O=C(O)CCNC(=O)c1ccc(/N=N/c2ccc(O)c(C(=O)O)c2)cc1 [BALSALAZIDE] | Not Active | Not Active | Not Active | Not Active | Not Active | Not Active | Not Active | – | – | – | –
COc1cc(OC)c(C(=O)CCCN2CCCC2)c(OC)c1 [BUFLOMEDIL] | Not Active | Not Active | Not Active | Not Active | Not Active | Not Active | Not Active | – | – | – | –
Cn1c(=O)c2c(ncn2C)n(C)c1=O [CAFFEINE] | Not Active | Not Active | Not Active | Not Active | Not Active | Not Active | Not Active | – | – | – | –
ClC(Cl)(Cl)Cl [CARBON TETRACHLORIDE] | Not Active | Not Active | Not Active | Not Active | Not Active | Not Active | Not Active | – | – | – | –
CO/N=C(\C(=O)N[C@@H]1C(=O)N2C(C(=O)O)=C(COC(C)=O)CS[C@H]12)c1csc(N)n1 [CEFOTAXIME] | Not Active | Not Active | Not Active | Not Active | Not Active | Not Active | Not Active | – | – | – | –
CNC1=Nc2ccc(Cl)cc2C(c2ccccc2)=[N+]([O-])C1 [CHLORDIAZEPOXIDE] | Not Active | Not Active | Not Active | Not Active | Not Active | Not Active | Not Active | – | – | – | –
